Experimental data reported in patent US10869879B2, “Combinations to treat cancer” (EVOL SCIENCE LLC, priority 2017, dated 2020).

What was measured:
[1] = test system: BxPC3M1, BxPC3, Panc1, and MiaPaca2; test: Cell proliferation assay; type: cell-based; settings: vemurafenib 10 μM, all 4 cell lines (WT BRAF)
Method: FIG. 9A, FIG. 9B, FIG. 9C, FIG. 9D, FIG. 9E, FIG. 9F, FIG. 9G and FIG. 9H illustrate vemurafenib induced cell proliferation and serine synthesis in pancreatic cancer cell lines. FIG. 9A: Cell proliferation assay of BxPC3 cells treated with vemurafenib (10 μM). 100000 cells plated on day 0. FIG. 9B: Cell proliferation assay of BxPC3M1 cells treated with vemurafenib (10 μM). 100000 cells plated on day 0. FIG. 9C: Cell proliferation assay of Panc1 cells treated with vemurafenib (10 μM). 100000 cells plated on day 0. FIG. 9D: Cell proliferation assay of MiaPaca2 cells treated with vemurafenib (10 μM). 100000 cells plated on day 0. FIG. 9E: Mass spectrometry: PHGDH protein expression in pancreatic cancer cells treated with DMSO or vemurafenib (10 μM) (n=3). FIG. 9F: Mass spectrometry: PSAT1 protein expression in pancreatic cancer cells treated with DMSO or vemurafenib (10 μM) (n=3). FIG. 9G: Mass spectrometry: PSPH protein expression in pancreatic cancer cells treated with DMSO or vemurafenib (10 μM) (n=3). FIG. 9H: Mass spectrometry: SARS protein expression in pancreatic cancer cells treated with DMSO or vemurafenib (10 μM) (n=3).
Next, we tested the effect of vemurafenib treatment on pancreatic cancer cell proliferation. All 4 of the cell lines (BxPC3M1, BxPC3, Panc1, and MiaPaca2) tested express WT BRAF. […]

[2] = test system: SK-MEL-28VR1 vs SK-MEL-28 cells; settings: vemurafenib treatment, SK-MEL-28VR1 compared to parental SK-MEL-28
[3] = test system: SK-MEL-28VR1 cells; test: Mass spectrometry, FAM129B protein abundance; type: cell-based, human; settings: FIG. 5A, n=3
Method: (§1) FIG. 5A and FIG. 5B illustrate a characterization of SK-MEL-28VR1 cells. FIG. 5A: Unbiased Mass spectrometry: FAM129B protein abundance following differential treatments of SK-MEL-28 and SK-MEL-28VR1 cells (n=3). FIG. 5B: illustrates a characterization of SK-MEL-28VR1 cells. Western blot of PHGDH protein expression in differentially treated SK-MEL-28 and SK-MEL-28VR1 cells. Alpha tubulin used as loading control. 50 μg of protein loaded in each lane.
(§2) Samples were dried down and re-dissolved in 2.5% ACN/0.1% formic acid for liquid chromatography-tandem mass spectrometry (LC-MS/MS) analysis carried out on a Q-Exactive HF (Thermo Fisher Scientific) coupled with a U3000 RSLCnano HPLC device (Thermo Fisher Scientific). 5 μL of sample were loaded onto a C18 trap column (PepMap100; 300-μm i.d.×5 mm, 5-μm particle size, 100 Å; Thermo Fisher Scientific) at a flow rate of 10 μL min^−1. […] The runs were analyzed using Progenesis-QI for Proteomics (Nonlinear dynamics). […] The peptide and protein quantification used a synthetic control peptide for normalization across the samples. […]

[4] = test system: pancreatic cancer cells (BxPC3M1, BxPC3, Panc1, MiaPaca2); type: cell-based; settings: vemurafenib 10 μM versus DMSO, all 4 cell lines, n=3
[5] = test system: BxPC3M1 cells; test: Colony formation assay; type: cell-based, human; settings: vemurafenib 5 μM, glucose, and glycine depleted media, not with complete media
Method: (§3) For colony formation assays, 400 cells per well were seeded into 24-well plates on day 0. Cells were treated with DMSO or gemcitabine at various doses on day 1 for 24 hours. Gemcitabine was washed out on day 2, vemurafenib, dabrafenib, and methotrexate was added. On day 4, drugs added on day 2 was washed out. Cells were allowed to grow for a subsequent 7 days before being fixed (10% methanol+10% acetic acid) and stained with crystal violet (0.4% in 20% ethanol) for quantitation as previously described.
(§4) All proteomic trend plots were constructed using the Evol Science suite (ES). Volcano plotting serves to visually separate data points in two axes by both their expression ratio and their statistical significance. This enables a simple method of determining the most significant, differentially expressed proteins within a given comparison. For each protein, replicate values are gathered from each experiment to be compared to create two distributions of values. Student's T-Test of identical mean is used between the two independent samples of values to compare the distributions and generate a p-value of statistical significance. The −log 10 of the p-value is then taken to provide the Y coordinate, in graphical view. The X coordinate, Ratio, is given by the log 10 of the average of replicate ratio values for a given experiment. Combination Index calculations, Fa-CI plots, and isobolograms were constructed using the Compusyn software program using the Chou-Tulalay method. All plots representing colony formation assays were constructed using the Prism7 software (Graphpad.com). Two-way Anova tests were used to calculate p values.

[6] = test system: SK-MEL-28VR1 cells; test: Colony formation assay; type: cell-based, human; settings: for cell death with serine depletion: glucose, and glycine depleted media, not with complete media
Method: as §3, §4

[7] = test system: SK-MEL-28 cells; test: Colony formation assay; type: cell-based; settings: Homo sapiens, parental cell line, FIG. 4B, read-out: IC50 of vemurafenib, colony formation
Method: as §3
as §4, with “Combination Index calculations, Fa-CI plots, and isobolograms were constructed using the Compusyn software program using the Chou-Tulalay method. All plots representing colony formation assays were constructed using the Prism7 software (Graphpad.com). Two-way Anova tests were used to calculate p values.” left out

[8] = test system: SK-MEL-28 cells; test: Mass spectrometry, FAM129B protein abundance; type: cell-based; settings: parental SK-MEL-28 cells
Method: as §1, §2

## CCCS(=O)(=O)Nc1ccc(F)c(C(=O)c2c[nH]c3ncc(-c4ccc(Cl)cc4)cc23)c1F [vemurafenib, Vemurafenib]
[1]
  cell proliferation under vemurafenib treatment: increased proliferation
[2]; protein ASNS
  Fold differential, ASNS: 8 fold
[2]; protein CYP51A1
  Fold differential, CYP51A1: 8 fold
[2]; protein DUS2
  Fold differential, DUS2: 7 fold
[2]; protein FAM129B
  Fold differential, FAM129B: 9 fold
[2]; protein KRT19
  Fold differential, KRT19: 5 fold
[2]; protein LARS2
  Fold differential, LARS2: 6 fold
[2]; protein MPHOSPH6
  Fold differential, MPHOSPH6: 9 fold
[2]; protein MRPL13
  Fold differential, MRPL13: 2 fold
[2]; protein PDLIM7
  Fold differential, PDLIM7: 9 fold
[2]; protein PHGDH
  Fold differential, PHGDH: 2 fold
[2]; protein PPP1R7
  Fold differential, PPP1R7: 8 fold
[2]; protein PSAT1
  Fold differential, PSAT1: 8 fold
[2]; protein PSPH
  Fold differential, PSPH: 5 fold
[2]; protein RUVBL1
  Fold differential, RUVBL1: 3 fold
[2]; protein S100A11
  Fold differential, S100A11: 8 fold
[2]; protein SARS2
  Fold differential, SARS2: 4 fold
[2]; protein SARS
  Fold differential, SARS: 6 fold
[2]; protein SBDS
  Fold differential, SBDS: 10 fold
[2]; protein SPATA20
  Fold differential, SPATA20: 12 fold
[2]; protein TXNDC17
  Fold differential, TXNDC17: 2 fold
[3]
  Cytoplasmic FAM129B abundance increase, vemurafenib compared to vehicle treatment: ~6 fold
[4]
  PHGDH, PSAT1, PSPH, and SARS protein abundance: increased
[5]
  cell death with serine depleted media: > 50%
[6]; Homo sapiens, data not shown, read-out: IC50 of vemurafenib, colony formation
  IC50: ~30 µM
[6]; vemurafenib 2.5 μM
  cell death with serine depletion: > 50%
[6]; vemurafenib 5 μM
  cell death with serine depletion: > 50%
[7]
  IC50: ~1 µM
[8]
  FAM129B abundance in response to vemurafenib treatments: decreased
